Where “and” joins values, the source holds several entries; their conditions need not be identical. Identical values can stand only once.
Key:
DENV-2-eGFP = assay: microbe, parasite or virus in culture; format: cell-based, dengue virus; conditions: for SI (CC50/IC50): DENV-2-eGFP; for IC50: Dengue virus, DENV2, A549, 24 h
Experimental: (§1) Approximately 50% of confluent cells seeded in 96-well plates were infected with viruses in the presence of drugs or DMSO as a solvent control. At 24 h post-infection (hpi), cells were fixed with 4% paraformaldehyde at room temperature (RT) for 20 min, permeated with a 0.5% Triton X-100 buffer for 2 min, and blocked with 3% BSA for 30 min. Nuclei were stained with DAPI (Sigma) at RT for 20 min. Viral NS3 was stained with a mouse anti-NS3 monoclonal antibody (mAb)[47] followed by staining with an Alexa Fluor 488-conjugated goat anti-mouse IgG antibody (ThermoFisher) at RT for 1 h. Nine images from different fields per well were acquired and analyzed using an ImageXpress Micro XLS Widefield High-Content Analysis System (Molecular Devices, Sunnyvale, USA). To quantify viral infection, the fluorescence intensities of viral NS3 or eGFP from the reporter virus were measured using MetaXpress® (Molecular Devices, Sunnyvale, USA) and were calculated with a mock control (infection as 0%) and a DMSO solvent control (infection as 100%).

DENV-4 = assay: High-content image analysis of DENV-4 infection (NS3) in A549 cells; format: cell-based, dengue virus
Experimental: as §1

DENV-3 = assay: High-content image analysis of DENV-3 infection (NS3) in A549 cells; format: cell-based, dengue virus
Experimental: as §1

DENV-2 [1] = assay: Viral RNA replication assay (RT-qPCR); format: cell-based, dengue virus; conditions: 1 µM added at 1 hpi versus 2′CMA 20 µM, A549 cells, DENV-2 MOI 5
Experimental: Viral infection (MOI 5) and drug treatment were performed as described for the virus translation assay. Cells were harvested for real-time RT-PCR analysis after removing the cell-free viruses at 1, 2, 3, 6, 9, 12, 18, and 27 hpi. Viral RNA was quantified and normalized with actin RNA as described for the virus binding assay.

[2] = tested on: DENV-2 (mouse-adaptive NGC strain); assay: DENV challenge of Stat1-/- mice; format: in vivo
Experimental: Animal studies followed the guidelines of the Academia Sinica Institutional Animal Care and Use Committee. Five-week-old Stat1^−/− mice were subcutaneously challenged with 1 × 10^5 plaque-forming units (PFU) of DENV-2 (mouse-adaptive NGC strain)[29]. P12-34 (2.5 mg/kg per day in 500 µl PBS containing 10% DMSO) or vehicle control was intraperitoneally injected into DENV-2-infected mice for the first 6 days. At 1, 3, 5 and 7 days post-inoculation (dpi), the viral loads in sera were determined by RT-qPCR as previously described.

A549 cells = assay: LDH release cytotoxicity assay; format: cell-based, human; conditions: 24 h; for CC50: A549 cells; for noncytotoxic concentrations: human A549 cells
Experimental: (§2) Cells were treated with compounds at the indicated concentrations for 24 h. The release of lactate dehydrogenase (LDH) was measured using a Cytotoxicity Detection Kit (Roche, Basel, Switzerland) after removing cell debris. Cells treated with 1% Triton X-100 were used to determine the maximal LDH release.

[3] = LDH release cytotoxicity assay; format: cell-based, human; conditions: human, A549 cells
Experimental: as §2

DENV-2 [4] = assay: High-content image analysis of DENV-2 infection (NS3) in A549 cells; format: cell-based, dengue virus
Experimental: as §1

DENV-1 = assay: High-content image analysis of DENV-1 infection (NS3) in A549 cells; format: cell-based, dengue virus
Experimental: as §1

DENV-2 [5] = assay: Viral translation assay (NS3 western blot); format: cell-based, dengue virus; conditions: 1 µM added at 1 hpi, A549 cells, DENV-2 MOI 20
Experimental: A549 cells absorbed with DENV-2 (MOI 20) at 4 °C for 1 h were washed to remove unbound viruses. After incubating at 37 °C for 1 h to allow viral entry, cells were treated with P12-23 (1 µM), P12-34 (1 µM) or 2′-c-methyladenosine (20 µM). Cells were harvested at 2, 3, 4, and 6 hpi for western blot analysis as previously described[46] with an anti-NS3 mAb[47] and an anti-actin mAb (NB600-501; Novus Biologicals, Littleton, CO, USA). Protein expression levels were quantified using ImageJ.

DHODH = biological target: T1, DHODH (Homo sapiens, UniProt Q02127); assay: BP12-34 pull-down, DHODH; format: binding; conditions: BP12-34 0.25 or 0.5 µM pull-down, A549 cell lysates
T1 construct: endogenous in cells; host or cells: A549 cell lysate
T1 sequence (Q02127 whole entry): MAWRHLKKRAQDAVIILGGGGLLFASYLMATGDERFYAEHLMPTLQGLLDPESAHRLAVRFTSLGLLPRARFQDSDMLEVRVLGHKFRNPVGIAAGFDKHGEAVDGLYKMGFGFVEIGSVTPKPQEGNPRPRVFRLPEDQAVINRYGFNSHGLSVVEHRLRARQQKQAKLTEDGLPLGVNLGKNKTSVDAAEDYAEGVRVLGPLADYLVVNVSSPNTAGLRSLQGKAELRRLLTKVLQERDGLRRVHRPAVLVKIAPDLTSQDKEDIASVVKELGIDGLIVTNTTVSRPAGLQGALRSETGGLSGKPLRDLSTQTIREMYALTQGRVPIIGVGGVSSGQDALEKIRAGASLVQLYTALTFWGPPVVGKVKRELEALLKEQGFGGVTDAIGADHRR
Experimental: (§3) Supplementary figure 4. P12-34 interacts with cytochrome bc1 complex. Cell lysates of A549 were treated with 0.25 μM (+) or 0.5 μM (++) BP12-34 at 4 ℃ for 1 h, then incubated with streptavidin (SA) beads at 4 ℃ for 30 min. Non-specific binding was removed by washing with PBS. After precipitation, P12-34-associated proteins were analyzed by western blot with the indicated antibodies against DHODH and cytochrome bc1 complex.

wild-type DENV (DENV1-4) = assay: High-content image analysis, all four serotypes of wild-type DENV in A549 cells; format: cell-based; conditions: Dengue virus, DENV1, A549, read-out: IC50 range over the four serotypes
Experimental: as §1

DENV-2 [6] = assay: Viral binding assay; format: cell-based, dengue virus; conditions: 1 µM, A549 cells, DENV-2 MOI 5, 4 °C 1 h
Experimental: A549 cells and DENV-2 separately pretreated with P12-23 (1 µM), P12-34 (1 µM) or heparin (100 unit/ml) at 37 ℃ for 1 h were mixed to allow for viral adsorption at a multiplicity of infection (MOI) of 5 at 4 °C for 1 h. After washing off unbound viruses, RNA was extracted using an RNeasy® Mini Kit (QIAGEN, Hilden, Germany), and viral titers were quantified by real-time RT-PCR as previously described[48] using DENV-2 primers (5′-[…]-3′ and 5′-[…]-3′) and β-actin primers (5′-[…]-3′ and 5′-[…]-3′). After the RNA was normalized to the internal control in each sample, the relative level of viral RNA was determined using the DMSO solvent control.

cytochrome bc1 complex = biological target: T2, cytochrome bc1 complex (Homo sapiens, UniProt P00156+P22695+P31930); assay: BP12-34 pull-down, cytochrome bc1 complex; format: binding; conditions: BP12-34 0.25 or 0.5 µM pull-down, A549 cell lysates
T2 construct: endogenous in cells; host or cells: A549 cell lysate
Experimental: as §3

DENV-2 [7] = assay: Viral entry assay; format: cell-based, dengue virus; conditions: 1 µM, A549 cells, DENV-2 MOI 5
Experimental: A549 cells pretreated with P12-23 (1 µM), P12-34 (1 µM) or Pitstop®2 (5 µM) at 37 ℃ for 1 h were absorbed with DENV-2 (MOI 5) at 4 °C for 1 h. After removing the unbound viruses, cells were shifted to 37 ℃ for 30 min for viral entry. The cell surface-associated viruses were then removed by treatment with trypsin-EDTA (ThermoFisher) at 37 °C for 10 min. Viral entry indicated by E protein positivity was determined using a BD FACSCalibur Flow Cytometer (BD) after immunofluorescent staining with an anti-E mAb[47].

ZIKV = assay: High-content image analysis of ZIKV infection (NS3) in A549 cells; format: cell-based, Zika virus; conditions: for IC50: Zika virus, MOI 0.5, A549 cells, 24 h
Experimental: as §1

[8] = tested on: interferon (IFN)-stimulated response element (ISRE) reporter; assay: ISRE reporter assay and IFN-stimulated gene expression in HEK 293T cells; format: cell-based, human; conditions: 1 µM, 24 h
Experimental: Short synthetic 5′-triphosphate RNA molecules (ssRNA) was synthesized with use of the RiboMAX™ Large Scale RNA Production Kit (P1280, Promega) from control DNA template in the kit, then extracted with the RNeasy® Mini Kit (QIAGEN). About 80% confluent HEK 293T cells in 48 well-plate were co-transfected with pISRE-Luc (Stratagene, Ref 219089) (10 ng/well) and pRL-TK Renilla reporter plasmids (E2241, Promega) (2 ng/well), and increasing doses of ssRNA, then treated with DMSO, 1 μM brequinar, or 1 μM P12-34 for 24h. The luciferase activities were analyzed by using the Dual-Luciferase® Reporter Assay Kit (Promega) and SpectraMax L Microplate Reader (Molecular devices, San Jose, CA, USA). ISRE-Luciferase activity was firstly normalized with Renilla-luciferase activity, then normalized with DMSO control without ssRNA.
Supplementary figure 5. P12-34 amplifies innate immune response. (a) HEK 293T cells were co-transfected with pISRE-luc and pRL-TK Renilla reporter plasmids, and short synthetic 5′-triphosphate RNA molecules (ssRNA), then treated with DMSO, brequinar (1 μM), or P12-34 (1 μM) for 24 h. ISRE-Luciferase activity was normalized with Renilla-luciferase activity in each sample, and then the relative ISRE-Luc level was determined with the DMSO control without ssRNA. Representative data from repeated experiments are shown as mean and SD (n =3). […]

JEV-eGFP = assay: microbe, parasite or virus in culture; format: cell-based, Japanese encephalitis virus; conditions: for SI (CC50/IC50): JEV-eGFP; for IC50: Japanese encephalitis virus, A549, 24 h
Experimental: as §1

[9] = P12-34 1 µM, uridine 50 µg/ml, A549 cells

Cc1c(-c2ccc(-c3ccccc3F)cc2)nc2ccc(F)cc2c1C(=O)O [brequinar, reference compound]
effect on DENV replication (DENV-2-eGFP; A549 cells, DENV-2-eGFP MOI 5, reversed by exogenous uridine 50 µg/ml): reduced DENV replication in a dose-dependent manner

N[C@@H](Cc1ccccc1)C(=O)Nc1ccc(-n2cc(C(F)(F)F)cc2-c2ccc3c(ccc4ccccc43)c2)cc1 [P12-34]
SI (CC50/IC50) (DENV-4; DENV-4, A549 cells): 317.8 ± 24.9 | IC50 (DENV-4; Dengue virus, DENV4, A549, 24 h): 63.9 ± 5.1 nM | SI (CC50/IC50) (DENV-3; DENV-3, A549 cells): 223.4 ± 8.6 | IC50 (DENV-3; Dengue virus, DENV3, A549, 24 h): 90.6 ± 3.4 nM | suppression of intracellular viral RNA replication (DENV-2 [1]): more potent than 2′CMA | mice alive at 39 dpi ([2]; Stat1-/- mice, subcutaneous DENV-2 challenge, 2.5 mg/kg per day i.p. for first 6 days, n = 5): 60% | viral genome copy numbers in sera ([2]; Stat1-/- mice, subcutaneous DENV-2 challenge, 2.5 mg/kg per day i.p., especially at 3 dpi): significantly reduced | protection against DENV challenge injected intraperitoneally ([2]; virus injected intraperitoneally, data not shown): did not protect mice | CC50 (A549 cells): 20.3 ± 0.2 µM | noncytotoxic concentrations (A549 cells): ≤ 12.5 µM | CC50 at 24 h [3]: ~20 µM | SI (CC50/IC50) (DENV-2 [4]; DENV-2, A549 cells): 326.5 ± 26.4 | IC50 (DENV-2 [4]; Dengue virus, DENV2, A549, 24 h): 62.2 ± 4.9 nM | SI (CC50/IC50) (DENV-1; DENV-1, A549 cells): 206.3 ± 3.5 | IC50 (DENV-1; Dengue virus, DENV1, A549, 24 h): 98 ± 1.7 nM | effect on NS3 levels at early stage of infection (viral translation) (DENV-2 [5]): did not reduce NS3 levels until 4~6 h post-infection | SI (CC50/IC50) (DENV-2-eGFP; A549 cells): 388 and 387.9 ± 14.7 | IC50 (DENV-2-eGFP): 52.1 ± 2 nM | suppressive effect on DENV replication with added Oro or DHO (DENV-2-eGFP; P12-34 1 µM, A549 cells, DENV-2-eGFP MOI 5): addition of Oro but not DHO could block the suppressive effect | anti-DENV activity in mitochondria-depleted cells (DENV-2-eGFP; ρ0 A549 cells, DENV-2-eGFP MOI 5, 24 h): lost | interaction with DHODH (DHODH): did not appear to interact with DHODH | IC50 (wild-type DENV (DENV1-4)): 62 to 98 nM | effect on viral binding (DENV-2 [6]): no suppressive effect | binding to cytochrome bc1 complex (cytochrome bc1 complex): bind cytochrome bc1 complex in a dose-dependent manner | effect on viral entry (DENV-2 [7]): no suppressive effect | suppression of ZIKV replication with uridine supplement (ZIKV; [9]): this effect of uridine was also noted | SI (CC50/IC50) (ZIKV; ZIKV, A549 cells): 171.4 ± 16.1 | relative potency versus AR-12 (fold) (ZIKV; ZIKV, A549 cells): ~ 10 fold | IC50 (ZIKV; ZIKV): 119 ± 11.7 nM | innate immune responses triggered by ssRNA (ISRE reporter, IFIT1, IRF-1) [8]: enhanced the innate immune responses | relative potency versus AR-12 (fold) (JEV-eGFP; JEV, A549 cells): ~ 10 fold | SI (CC50/IC50) (JEV-eGFP; A549 cells): 360.3 ± 3.1 | IC50 (JEV-eGFP): 56.1 ± 0.5 nM | suppression of JEV replication with uridine supplement (JEV-eGFP; [9]): this effect of uridine was also noted

NCC(=O)Nc1ccc(-n2nc(C(F)(F)F)cc2-c2ccc3c(ccc4ccccc43)c2)cc1 [AR-12]
CC50 (A549 cells): 21.4 ± 0.2 µM | noncytotoxic concentrations (A549 cells): ≤ 12.5 µM | CC50 at 24 h [3]: ~20 µM | SI (CC50/IC50) (DENV-2-eGFP; A549 cells): 33 and 33.2 ± 5.9 | IC50 (DENV-2-eGFP): 660 ± 130 nM | anti-DENV activity with uridine supplement (DENV-2-eGFP; uridine 50 µg/ml, P12-23 1 µM, P12-34 1 µM, AR-12 5 µM, A549 cells): abolished | SI (CC50/IC50) (ZIKV; ZIKV, A549 cells): 15.8 ± 2 | IC50 (ZIKV; ZIKV): 1370 ± 177 nM | SI (CC50/IC50) (JEV-eGFP; A549 cells): 42.3 ± 4.1 | IC50 (JEV-eGFP): 510 ± 52.4 nM

Reference: PMC6246607, “Novel AR-12 derivatives, P12-23 and P12-34, inhibit flavivirus replication by blocking host de novo pyrimidine biosynthesis” (Emerging Microbes & Infections, 2018)
